Laboratory results: US20090270350A1, “Pyridinone Pyrazole Urea and Pyrimidinone Pyrazole Urea Derivatives” (PFIZER INC., priority 2006, published 2009)

`Cc1ccc(C(=O)NCCN(C)C)cc1-n1c(C)cc(OCc2ccccc2CNC(=O)Nc2cc(C(C)(C)C)nn2-c2ccc(O)c(Cl)c2)c(Cl)c1=O` [Example 158, 3-[4-(2-{3-[5-tert-butyl-2-(3-chloro-4-hydroxy-phenyl)-2H-pyrazol-3-yl]-ureidomethyl}-benzyloxy)-3-chloro-6-methyl-2-oxo-2H-pyridin-1-yl]-N-(2-dimethylamino-ethyl)-4-methyl-benzamide] showed a melting point of 181 to 182 °C.
Compound `COC(=O)c1ccc(C)c(-n2c(C)cc(OCc3ccccc3CNC(=O)Nc3cc(C(C)(C)C)nn3-c3ccc(O)cc3)c(Cl)c2=O)c1` [Example 135, 3-[4-(2-{3-[5-tert-butyl-2-(4-hydroxy-phenyl)-2H-pyrazol-3-yl]-ureidomethyl}-benzyloxy)-3-chloro-6-methyl-2-oxo-2H-pyridin-1-yl]-4-methyl-benzoic acid methyl ester] has a melting point of 199 to 200 °C.
With `Cc1ccc(C(=O)OCCO)cc1-n1c(C)cc(OCc2ccc(F)cc2CNC(=O)Nc2cc(C(C)(C)C)nn2-c2cccc(OCCO)c2)c(Cl)c1=O` [Example 180, 3-{4-[2-(3-{5-tert-butyl-2-[3-(2-hydroxy-ethoxy)-phenyl]-2H-pyrazol-3-yl}-ureidomethyl)-4-fluoro-benzyloxy]-3-chloro-6-methyl-2-oxo-2H-pyridin-1-yl}-4-methyl-benzoic acid 2-hydroxy-ethyl ester] the melting point was 180 to 181 °C.
`COCCNC(=O)c1ccc(C)c(-n2c(C)cc(OCc3ccccc3CNC(=O)Nc3cc(C(C)(C)C)nn3-c3ccc(Cl)c(O)c3)c(Cl)c2=O)c1` [Example 163, 3-[4-(2-{3-[5-tert-butyl-2-(4-chloro-3-hydroxy-phenyl)-2H-pyrazol-3-yl]-ureidomethyl}-benzyloxy)-3-chloro-6-methyl-2-oxo-2H-pyridin-1-yl]-N-(2-methoxy-ethyl)-4-methyl-benzamide] gave a melting point of 182 to 183 °C.
For `Cc1ccc(C(=O)NCCO)cc1-n1c(C)cc(OCc2ccccc2CNC(=O)Nc2cc(C(C)(C)C)nn2-c2ccc(Cl)c(O)c2)c(Cl)c1=O` [Example 162, 3-[4-(2-{3-[5-tert-butyl-2-(4-chloro-3-hydroxy-phenyl)-2H-pyrazol-3-yl]-ureidomethyl}-benzyloxy)-3-chloro-6-methyl-2-oxo-2H-pyridin-1-yl]-N-(2-hydroxy-ethyl)-4-methyl-benzamide], the melting point was 196 to 197 °C.
In the case of `COCCNC(=O)c1ccc(C)c(-n2c(C)cc(OCc3ccccc3CNC(=O)Nc3cc(C(C)(C)C)nn3-c3cccc(OCCO)c3)c(Cl)c2=O)c1` [Example 173], the melting point is reported as 143 to 145 °C.
Work on `COC(=O)c1ccc(C)c(-n2c(C)cc(OCc3ccccc3CNC(=O)Nc3cc(C(C)(C)C)nn3-c3ccc(O)c(Cl)c3)c(Cl)c2=O)c1` [Example 137, 3-[4-(2-{3-[5-tert-butyl-2-(3-chloro-4-hydroxy-phenyl)-2H-pyrazol-3-yl]-ureidomethyl}-benzyloxy)-3-chloro-6-methyl-2-oxo-2H-pyridin-1-yl]-4-methyl-benzoic acid methyl ester] yielded a melting point of 185 to 186 °C.
With `COC(=O)c1ccc(C)c(-n2c(C)cc(OCc3ccc(F)cc3CNC(=O)Nc3cc(C(C)(C)C)nn3-c3ccc(O)cc3)c(Cl)c2=O)c1` [Example 136, 3-[4-(2-{3-[5-tert-butyl-2-(4-hydroxy-phenyl)-2H-pyrazol-3-yl]-ureidomethyl}-4-fluoro-benzyloxy)-3-chloro-6-methyl-2-oxo-2H-pyridin-1-yl]-4-methyl-benzoic acid methyl ester] the melting point was 188 to 190 °C.
`Cc1ccc(C(=O)NCC(O)CO)cc1-n1c(C)cc(OCc2ccccc2CNC(=O)Nc2cc(C(C)(C)C)nn2-c2ccc(O)c(Cl)c2)c(Cl)c1=O` (centres unmarked) [Example 157, 3-[4-(2-{3-[5-tert-butyl-2-(3-chloro-4-hydroxy-phenyl)-2H-pyrazol-3-yl]-ureidomethyl}-benzyloxy)-3-chloro-6-methyl-2-oxo-2H-pyridin-1-yl]-N-(2,3-dihydroxy-propyl)-4-methyl-benzamide] showed a melting point of 173 to 175 °C.
Compound `Cc1ccc(C(=O)NCC(N)=O)cc1-n1c(C)cc(OCc2ccccc2CNC(=O)Nc2cc(C(C)(C)C)nn2-c2ccc(O)c(Cl)c2)c(Cl)c1=O` [Example 160, 3-[4-(2-{3-[5-tert-butyl-2-(3-chloro-4-hydroxy-phenyl)-2H-pyrazol-3-yl]-ureidomethyl}-benzyloxy)-3-chloro-6-methyl-2-oxo-2H-pyridin-1-yl]-N-carbamoylmethyl-4-methyl-benzamide] has a melting point of 228 to 230 °C.
Compound `COCCNC(=O)c1ccc(C)c(-n2c(C)cc(OCc3ccc(F)cc3CNC(=O)Nc3cc(C(C)(C)C)nn3-c3ccc(Cl)c(O)c3)c(Cl)c2=O)c1` [Example 164, 3-[4-(2-{3-[5-tert-butyl-2-(4-chloro-3-hydroxy-phenyl)-2H-pyrazol-3-yl]-ureidomethyl}-4-fluoro-benzyloxy)-3-chloro-6-methyl-2-oxo-2H-pyridin-1-yl]-N-(2-methoxy-ethyl)-4-methyl-benzamide] has a melting point of 186 to 187 °C.
In the case of `COC(=O)c1ccc(C)c(-n2c(C)cc(OCc3ccccc3CNC(=O)Nc3cc(C(C)(C)C)nn3-c3ccc(Cl)c(O)c3)c(Cl)c2=O)c1` [Example 138, 3-[4-(2-{3-[5-tert-butyl-2-(4-chloro-3-hydroxy-phenyl)-2H-pyrazol-3-yl]-ureidomethyl}-benzyloxy)-3-chloro-6-methyl-2-oxo-2H-pyridin-1-yl]-4-methyl-benzoic acid methyl ester], the melting point is reported as 193 to 195 °C.
Compound `Cc1ccc(C(=O)NCCN(C)C)cc1-n1c(C)cc(OCc2ccc(F)cc2CNC(=O)Nc2cc(C(C)(C)C)nn2-c2ccc(Cl)c(O)c2)c(Cl)c1=O` [Example 166, 3-[4-(2-{3-[5-tert-Butyl-2-(4-chloro-3-hydroxy-phenyl)-2H-pyrazol-3-yl]-ureidomethyl}-4-fluoro-benzyloxy)-3-chloro-6-methyl-2-oxo-2H-pyridin-1-yl]-N-(2-dimethylamino-ethyl)-4-methyl-benzamide] has a melting point of 177 to 178 °C.
In the case of `Cc1ccc(C(=O)NCCO)cc1-n1c(C)cc(OCc2ccccc2CNC(=O)Nc2cc(C(C)(C)C)nn2-c2ccc(O)c(Cl)c2)c(Cl)c1=O` [Example 154, 3-[4-(2-{3-[5-tert-butyl-2-(3-chloro-4-hydroxy-phenyl)-2H-pyrazol-3-yl]-ureidomethyl}-benzyloxy)-3-chloro-6-methyl-2-oxo-2H-pyridin-1-yl]-N-(2-hydroxy-ethyl)-4-methyl-benzamide], the melting point is reported as 195 to 196 °C.
For `CNC(=O)c1ccc(C)c(-n2c(C)cc(OCc3ccc(F)cc3CNC(=O)Nc3cc(C(C)(C)C)nn3-c3ccc(O)c(Cl)c3)c(Cl)c2=O)c1` [Example 169, 3-[4-(2-{3-[5-tert-butyl-2-(3-chloro-4-hydroxy-phenyl)-2H-pyrazol-3-yl]-ureidomethyl}-4-fluoro-benzyloxy)-3-chloro-6-methyl-2-oxo-2H-pyridin-1-yl]-4,N-dimethyl-benzamide], the melting point was 177 to 180 °C.
Work on `Cc1ccc(C(=O)NCCN(C)C)cc1-n1c(C)cc(OCc2ccccc2CNC(=O)Nc2cc(C(C)(C)C)nn2-c2cccc(OCCO)c2)c(Cl)c1=O` [Example 174] yielded a melting point of 164 to 165 °C.
Work on `Cc1ccc(C(=O)NCC(O)CO)cc1-n1c(C)cc(OCc2ccccc2CNC(=O)Nc2cc(C(C)(C)C)nn2-c2cccc(OCCO)c2)c(Cl)c1=O` (centres unmarked) [Example 134, 3-{4-[2-(3-{5-tert-Butyl-2-[3-(2-hydroxy-ethoxy)-phenyl]-2H-pyrazol-3-yl}-ureidomethyl)-benzyloxy]-3-chloro-6-methyl-2-oxo-2H-pyridin-1-yl}-N-(2,3-dihydroxy-propyl)-4-methyl-benzamide] yielded a melting point of 158 to 160 °C.
`COCCNC(=O)c1ccc(C)c(-n2c(C)cc(OCc3ccccc3CNC(=O)Nc3cc(C(C)(C)C)nn3-c3ccc(O)c(Cl)c3)c(Cl)c2=O)c1` [Example 155, 3-[4-(2-{3-[5-tert-butyl-2-(3-chloro-4-hydroxy-phenyl)-2H-pyrazol-3-yl]-ureidomethyl}-benzyloxy)-3-chloro-6-methyl-2-oxo-2H-pyridin-1-yl]-N-(2-methoxy-ethyl)-4-methyl-benzamide] showed a melting point of 179 to 180 °C.
For `Cc1ccc(C(=O)NCCN(C)C)cc1-n1c(C)cc(OCc2ccccc2CNC(=O)Nc2cc(C(C)(C)C)nn2-c2ccc(Cl)c(O)c2)c(Cl)c1=O` [Example 165, 3-[4-(2-{3-[5-tert-butyl-2-(4-chloro-3-hydroxy-phenyl)-2H-pyrazol-3-yl]-ureidomethyl}-benzyloxy)-3-chloro-6-methyl-2-oxo-2H-pyridin-1-yl]-N-(2-dimethylamino-ethyl)-4-methyl-benzamide], the melting point was 185 to 186 °C.
In the case of `COC(=O)c1ccc(C)c(-n2c(C)cc(OCc3ccccc3CNC(=O)Nc3cc(C(C)(C)C)nn3-c3cccc(OCCO)c3)c(Cl)c2=O)c1` [Example 130, 3-{4-[2-(3-{5-tert-Butyl-2-[3-(2-hydroxy-ethoxy)-phenyl]-2H-pyrazol-3-yl}-ureidomethyl)-benzyloxy]-3-chloro-6-methyl-2-oxo-2H-pyridin-1-yl}-4-methyl-benzoic acid methyl ester], the melting point is reported as 147 to 148 °C.
Work on `COC(=O)c1ccc(C)c(-n2c(C)cc(OCc3ccc(F)cc3CNC(=O)Nc3cc(C(C)(C)C)nn3-c3ccc(O)c(Cl)c3)c(Cl)c2=O)c1` [Example 140, 3-[4-(2-{3-[5-tert-butyl-2-(3-chloro-4-hydroxy-phenyl)-2H-pyrazol-3-yl]-ureidomethyl}-4-fluoro-benzyloxy)-3-chloro-6-methyl-2-oxo-2H-pyridin-1-yl]-4-methyl-benzoic acid methyl ester] yielded a melting point of 197 to 200 °C.
Work on `CNC(=O)c1ccc(C)c(-n2c(C)cc(OCc3ccccc3CNC(=O)Nc3cc(C(C)(C)C)nn3-c3ccc(O)c(Cl)c3)c(Cl)c2=O)c1` [Example 153, 3-[4-(2-{3-[5-tert-butyl-2-(3-chloro-4-hydroxy-phenyl)-2H-pyrazol-3-yl]-ureidomethyl}-benzyloxy)-3-chloro-6-methyl-2-oxo-2H-pyridin-1-yl]-4,N-dimethyl-benzamide] yielded a melting point of 201 to 203 °C.
`Cc1ccc(C(=O)NCC(O)CO)cc1-n1c(C)cc(OCc2ccccc2CNC(=O)Nc2cc(C(C)(C)C)nn2-c2ccc(Cl)c(O)c2)c(Cl)c1=O` (centres unmarked) [Example 168, 3-[4-(2-{3-[5-tert-Butyl-2-(4-chloro-3-hydroxy-phenyl)-2H-pyrazol-3-yl]-ureidomethyl}-benzyloxy)-3-chloro-6-methyl-2-oxo-2H-pyridin-1-yl]-N-(2,3-dihydroxy-propyl)-4-methyl-benzamide] showed a melting point of 169 to 171 °C.
